Laboratory results: PMC6805867, “Amphiphilic Triazine Polymer Derivatives as Antibacterial And Anti-atopic Agents in Mice Model” (Scientific Reports, 2019)
Values after ≈ are worked out from the molar mass of the structure shown.

Experiments:
[1] = system: Pseudomonas aeruginosa (KCTC 1637); experiment: Antimicrobial activity, broth microdilution MIC; type: cell-based; conditions: 2 × 10^6 CFU/mL in 1% peptone, 37 °C, 18–22 h, 100% inhibition of growth, performed three times
Protocol: (§1) The bacterial strains employed in the experiment were Escherichia coli (KCTC 1682), Pseudomonas aeruginosa (KCTC 1637), Bacillus subtilis (KCTC 3068), Staphylococcus aureus (KCTC 1621), three methicillin-resistant Staphylococcus aureus (CCARM 3089, 3090 and 3095), two multidrug-resistant Pseudomonas aeruginosa (CCARM 2095 and 2109) and vancomycin-resistant Enterococcus faecium (ATCC 51559). The antimicrobial activities of polymers were determined by the broth microdilution method, and the procedures were used as previously reported. Briefly, bacteria grown to mid-logarithmic phase in LB broth were diluted to 2 × 10^6 CFU/mL in 1% peptone and added to serial two-fold dilutions of different polymers ranging from 1 to 64 μg/mL. The plates were incubated in a shaking incubator at 37 °C for 18–22 h. The minimum inhibitory concentration (MIC) was determined by confirming the absence of bacterial growth both visually and spectrophotometrically by OD600 readings taken by a microplate ELISA reader (Molecular Devices, Sunnyvale, CA, USA). All measurements were performed three times.

[2] = system: Staphylococcus aureus (KCTC 1621); experiment: Antimicrobial activity, broth microdilution MIC; type: cell-based; conditions: 2 × 10^6 CFU/mL in 1% peptone, 37 °C, 18–22 h, 100% inhibition of growth, performed three times
Protocol: as §1

[3] = system: Bacillus subtilis (KCTC 3068); experiment: Antimicrobial activity, broth microdilution MIC; type: cell-based; conditions: 2 × 10^6 CFU/mL in 1% peptone, 37 °C, 18–22 h, 100% inhibition of growth, performed three times
Protocol: as §1

[4] = system: Escherichia coli (KCTC 1682); experiment: Antimicrobial activity, broth microdilution MIC; type: cell-based; conditions: 2 × 10^6 CFU/mL in 1% peptone, 37 °C, 18–22 h, 100% inhibition of growth, performed three times
Protocol: as §1

[5] = system: selected bacterial strains; experiment: Geometric mean of MIC values over the bacterial strains; type: cell-based; conditions: geometric mean of MIC values from selected six bacterial strains (footnote b)
Protocol: as §1

[6] = system: Methicillin-resistant Staphylococcus aureus (MRSA) CCARM 3089; type: cell-based; conditions: broth microdilution, 37 °C, 18–22 h
Protocol: as §1

[7] = system: Multidrug-resistant Pseudomonas aeruginosa (MDRPA) CCARM 2095; type: cell-based; conditions: broth microdilution, 37 °C, 18–22 h
Protocol: as §1

[8] = system: Multidrug-resistant Pseudomonas aeruginosa (MDRPA) CCARM 2109; type: cell-based; conditions: broth microdilution, 37 °C, 18–22 h
Protocol: as §1

[9] = system: Methicillin-resistant Staphylococcus aureus (MRSA) CCARM 3095; type: cell-based; conditions: broth microdilution, 37 °C, 18–22 h
Protocol: as §1

[10] = system: Methicillin-resistant Staphylococcus aureus (MRSA) CCARM 3090; type: cell-based; conditions: broth microdilution, 37 °C, 18–22 h
Protocol: as §1

trypsin = experiment: Protease stability, radial diffusion assay after tryptic digestion; type: in vitro ADME; conditions: trypsin 0.2 μg/mL in PBS, 37 °C (24 h, 4 h elsewhere in the source), clearance zones against E.coli and S.aureus
Protocol: The protease stability of triazine based polymers (TZP3 and TZP5) was performed by the radial diffusion assay as described previously. Briefly, a bacteria suspension (2×10^6 CFU/mL in LB) was mixed with 0.7% agarose. This mixture was poured into a 10-cm petri dish, and it dispersed rapidly. […] The reaction was stopped by freezing with liquid nitrogen, after which 10 μL aliquots were placed in each circle paper, put on the agarose plates, and then incubated at 37 °C overnight. The diameters of the bacterial clearance zones surrounding the circle paper were measured for the quantitation of inhibitory activities.

| SMILES | MIC Pseudomonas aeruginosa (KCTC 1637) [1] | MIC Staphylococcus aureus (KCTC 1621) [2] | MIC Bacillus subtilis (KCTC 3068) [3] | MIC Escherichia coli (KCTC 1682) [4] | GM (geometric mean of MIC values) [5] | MIC MRSA CCARM 3089 [6] [µg/mL] | MIC MDRPA CCARM 2095 [7] [µg/mL] | MIC MDRPA CCARM 2109 [8] [µg/mL] | MIC MRSA CCARM 3095 [9] [µg/mL] | MIC MRSA CCARM 3090 [10] [µg/mL] | antibacterial activity after incubation with trypsin (trypsin) |
| --- | --- | --- | --- | --- | --- | --- | --- | --- | --- | --- | --- |
| NCCCN(CCCN)c1nc(NCCNc2nc(N)nc(N(Cc3ccccc3)Cc3ccccc3)n2)nc(NCCNc2nc(Cl)nc(N(Cc3ccccc3)Cc3ccccc3)n2)n1 [TZP8] | >64 [>69.3] μg/mL | 8 [8.7] μg/mL | 8 [8.7] μg/mL | 8 [8.7] μg/mL | 38.0 [41.1] μg/mL | – | – | – | – | – | – |
| N=C(N)NCCCN(CCCNC(=N)N)c1nc(N)nc(NCCNc2nc(NCCNc3nc(Cl)nc(N(CCCNC(=N)N)CCCNC(=N)N)n3)nc(N(Cc3ccccc3)Cc3ccccc3)n2)n1 [TZP9] | 8 [7.8] μg/mL | 2 [1.9] μg/mL | 2 [1.9] μg/mL | 2 [1.9] μg/mL | 3.5 [3.4] μg/mL | – | – | – | – | – | – |
| N=C(N)NCCCN(CCCNC(=N)N)c1nc(Cl)nc(NCCNc2nc(NCCNc3nc(N)nc(NCCC(c4ccccc4)c4ccccc4)n3)nc(N(CCCNC(=N)N)CCCNC(=N)N)n2)n1 [TZP10] | 16 [15.4] μg/mL | 4 [3.8] μg/mL | 4 [3.8] μg/mL | 4 [3.8] μg/mL | 7.0 [6.7] μg/mL | – | – | – | – | – | – |
| N=C(N)NCCCN(CCCNC(=N)N)c1nc(Cl)nc(NCCNc2nc(NCCNc3nc(NCCNc4nc(N)nc(NCCC(c5ccccc5)c5ccccc5)n4)nc(N(CCCNC(=N)N)CCCNC(=N)N)n3)nc(NCCC(c3ccccc3)c3ccccc3)n2)n1 [TZP11] | 16 [18.3] μg/mL | 8 [9.2] μg/mL | 8 [9.2] μg/mL | 8 [9.2] μg/mL | 10.0 µg/mL | – | – | – | – | – | – |
| NCCCN(CCCN)c1nc(Cl)nc(NCCNc2nc(NCCNc3nc(NCCNc4nc(N)nc(NCCC(c5ccccc5)c5ccccc5)n4)nc(N(CCCN)CCCN)n3)nc(NCCC(c3ccccc3)c3ccccc3)n2)n1 [TZP12] | 16 [11.5] μg/mL | 4 [2.9] μg/mL | 8 [5.8] μg/mL | 4 [2.9] μg/mL | 8.0 [5.8] μg/mL | – | – | – | – | – | – |
| NCCCN(CCCN)c1nc(N)nc(NCCNc2nc(NCCNc3nc(NCCNc4nc(NCCNc5nc(Cl)nc(N(CCCN)CCCN)n5)nc(N(CCCN)CCCN)n4)nc(N(CCCN)CCCN)n3)nc(N(CCCN)CCCN)n2)n1 [TZP13] | 8 [6.6] μg/mL | 8 [6.6] μg/mL | 4 [3.3] μg/mL | 8 [6.6] μg/mL | 7.0 [5.7] μg/mL | – | – | – | – | – | – |
| CC[C@H](C)[C@H](NC(=O)CN)C(=O)NCC(=O)N[C@@H](C)C(=O)N[C@H](C(=O)N[C@@H](CC(C)C)C(=O)N[C@@H](CCCCN)C(=O)N[C@H](C(=O)N[C@@H](CC(C)C)C(=O)N[C@H](C(=O)N[C@H](C(=O)NCC(=O)N[C@@H](CC(C)C)C(=O)N1CCC[C@H]1C(=O)N[C@@H](C)C(=O)N[C@@H](CC(C)C)C(=O)N[C@H](C(=O)N[C@@H](CO)C(=O)N[C@@H](Cc1c[nH]c2ccccc12)C(=O)N[C@H](C(=O)N[C@@H](CCCCN)C(=O)N[C@@H](CCCNC(=N)N)C(=O)N[C@@H](CCCCN)C(=O)N[C@@H](CCCNC(=N)N)C(=O)N[C@@H](CCC(N)=O)C(=O)N[C@@H](CCC(N)=O)C(N)=O)[C@@H](C)CC)[C@@H](C)CC)[C@@H](C)O)[C@@H](C)O)C(C)C)C(C)C [melittin, reference compound] | – | – | – | – | – | 8 (≈ 2.81 µM) | 8 (≈ 2.81 µM) | 8 (≈ 2.81 µM) | 16 (≈ 5.62 µM) | 8 (≈ 2.81 µM) | lose its antibacterial activity entirely |
